Experimental data as given in patent US20020002140A1, “Novel bisphosphonates and uses thereof” (priority 2000, published 2002).
Like-named read-outs stand apart in the source and are kept apart here.

Columns and labels:
[1] = given orally; cited from earlier work
[2] = test system: bone cell suspension, including osteoclasts and other cell types; conditions: FIG. 3, concentrations up to 10^−4M, Sodium Salt
Text: Sterile, devitalized discs of dentine (diameter 4 mm) where prepared and placed in a 96 well tissue culture plate, one disc per well, and pre-wet overnight in α-MEM tissue culture medium supplemented with 10% fetal calf serum. The femora and tibiae where dissected from 18 day chick embryos and transferred into α-MEM culture medium supplemented with 10% fetal calf serum.
The bones were finely minced using a sharp scalpel and the resulting suspension was triturated using a sterile pipette and transferred to a sterile plastic tube. The suspension was allowed to stand for one minute so that fragments of bone and other debris settled and the upper layer containing a bone cell suspension, including osteoclasts and other cell types, was harvested.
Aliquots of this bone cell suspension were added to the culture wells containing the devitalized dentine discs. Cells where allowed to settle for between 2 and 24 hours. The medium was then removed and new medium containing the test reagents was added. Cells where cultured for periods of time up to 72 hours after which time the dentine discs were washed in PBS at 37° C., fixed in 4% glutaraldehyde in 0.2 M sodium cacodylate, and stained for 5 minutes in 1% (w/v) toluidine blue in 0.5% disodium tetraborate. Excess stain was removed by washing in 70% ethanol for one minute. The dentine discs were then washed in tap water and air-dried.

osteoclasts = experiment: Assay of bone resorption in vitro (bone slice assay); type: cell-based; conditions: chick embryo bone cells on dentine discs; FIG. 1 (MH2 vs MH3), FIG. 2 (alendronate vs glucoside)
Procedure: Resorption lacunae where identified and quantitated using an Olympus BH2 microscope fitted for incident light microscopy. The plan area of resorption was determined by point counting using a ×10 objective and a drawing tube. The total area of each disc was analyzed.

NCCCC(O)(P(=O)(O)O)P(=O)(O)O [FOSAMAX, alendronate sodium]
drug absorbed from the gut, on average [1]: about 0.7%

O=P([O-])(O)C(O)(CCCNC1O[C@H](CO)[C@@H](O)[C@H](O)[C@H]1O)P(=O)(O)O.[Na+] (stereo partly shown) [glucoside, N-glucopyranosyl Alendronate Sodium Salt]
toxicity (cell number) [2]: substantially no toxicity | toxicity (cell number) ([2]; listed as alendronate glycoside): substantially less toxicity than unglycosylated alendronate

CC(Nc1ccc(O)cc1)(P(=O)(O)O)P(=O)(O)O [MH2, 1-((4-hydroxyphenyl)amino)ethylidene-1,1-diphosphonic acid]
effect on bone resorption (plan area of resorption lacunae on dentine discs) (osteoclasts): substantially less effect than MH3
